Laboratory results: patent US6432683B1, “Preparation of 2-aminomuconate from 2-aminophenol by coupled enzymatic dioxygenation and dehydrogenation reactions” (The United States of America as represented by the …, priority 2000, dated 2002)

SMILES: NC(=CC=CC(=O)O)C(=O)O [2-Aminomuconate, 2-aminohexa-2,4-diene-1,6-dioate]
- half-life (buffer, pH 9.5): 20 h
- amount lost on freezing and thawing (pH 8.0 in potassium phosphate buffer): 50%
- decomposition on freezing and thawing (pH 9.5 (Tris-HCl)): about 2%
- amount lost on storage (solution stored on ice for 50 h, 0.34 mM): 30%
